The text below walks through data of PMC4938538, “Inhibition of Pig Phosphoenolpyruvate Carboxykinase Isoenzymes by 3-Mercaptopicolinic Acid and Novel Inhibitors” (PLoS ONE, 2016).

Numbering of substitutions follows the chain as printed. “And” between values parts separate entries of the source, which are not always exact repeats. Identical values can stand only once.

The target of one assay is T1, PEPCK-C 139M (Sus scrofa, UniProt A0A4X1UM84).
T1 construct: His-tag (cleaved yes); made in house; host or cells: Escherichia coli BL21 (DE3)
T1 sequence (A0A4X1UM84 1-622): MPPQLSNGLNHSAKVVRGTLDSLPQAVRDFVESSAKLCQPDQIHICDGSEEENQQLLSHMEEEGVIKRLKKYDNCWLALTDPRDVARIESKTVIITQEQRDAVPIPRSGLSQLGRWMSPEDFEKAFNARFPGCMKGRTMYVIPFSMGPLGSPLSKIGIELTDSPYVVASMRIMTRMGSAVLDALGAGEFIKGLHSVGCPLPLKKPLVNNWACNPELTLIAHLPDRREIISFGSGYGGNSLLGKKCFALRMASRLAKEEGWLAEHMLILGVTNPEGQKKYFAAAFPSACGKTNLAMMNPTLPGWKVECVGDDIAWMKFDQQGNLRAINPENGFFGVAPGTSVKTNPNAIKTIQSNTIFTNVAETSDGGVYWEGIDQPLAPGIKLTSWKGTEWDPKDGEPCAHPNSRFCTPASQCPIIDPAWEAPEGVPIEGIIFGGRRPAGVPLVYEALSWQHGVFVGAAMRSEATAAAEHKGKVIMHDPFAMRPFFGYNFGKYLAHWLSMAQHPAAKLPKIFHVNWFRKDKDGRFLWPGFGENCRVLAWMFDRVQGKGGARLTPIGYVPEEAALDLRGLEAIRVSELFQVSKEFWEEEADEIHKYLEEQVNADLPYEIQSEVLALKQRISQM
The assay is described as follows: Isothermal titration calorimetry (ITC). Format: binding, pig. Conditions: 139Met; for Kd / ΔH: 25°C. As to the method:
(§1) The reference cell was filled with distilled water. […] 2 mM GTP was also added to the enzyme solution in the corresponding experiments. […] In all the assays, a total of 19 injections of 2 μL were added sequentially to the sample cell with a 150 s spacing to ensure that the thermal power signal returned to the baseline prior to the next injection. The binding isotherms (normalized heat effect as a function of the molar ratio) were analyzed with Origin 7 (OriginLab) using a single class of binding sites model. Calorimetric assays were perform in duplicates at least.

The target of the next assay is T2, PEPCK-C 139L (Sus scrofa, UniProt A0A4X1UM84, M139L).
T2 construct: His-tag (cleaved yes); made in house; host or cells: Escherichia coli BL21 (DE3)
T2 sequence (A0A4X1UM84 1-622 M139L): T1 sequence (A0A4X1UM84 1-622) with M139L
The assay is described as follows: Isothermal titration calorimetry (ITC). Format: binding, pig. The conditions noted are these: 139Leu; for Kd / ΔH: 25°C. The protocol:
as §1
Background: ITC needs no label: the signal is the heat of the interaction.

Another assay has as its target T3, PEPCK-C 139Leu (Sus scrofa, UniProt A0A4X1UM84, M139L).
T3 construct: made in house; host or cells: Escherichia coli BL21 (DE3)
T3 sequence (A0A4X1UM84 1-622 M139L): T1 sequence (A0A4X1UM84 1-622) with M139L
The assay is described as follows: Compound 1 and 2 inhibition assays in PEP synthesis direction (Vmax and Km). Conditions: for Vmax (GTP) in presence of inhibitor / Vmax (OAA) in presence of inhibitor: 50 μM inhibitor; for Vmax (OAA) in presence of inhibitor: OAA variable substrate. Format: biochemical, pig. As to the method: (§2) PEPCK-C activity was measured in an UNICAM 500 spectrometer (UNICAM Analytical Systems, UK) with coupled spectrophotometric assays using pyruvate kinase and lactate dehydrogenase as auxiliary enzymes in PEP synthesis reaction and malate dehydrogenase in the reverse reaction.
(§3) 3-MP inhibitions assays in OAA synthesis direction were carried out as described before with the exception of the variable substrate (50–600 μM for PEP and 10–100 μM for GDP) and 3-MP concentration (10–100 μM). Assays in the direction of PEP synthesis were performed in 1 mL of a 100 mM HEPES buffer pH 7.4, containing 10 mM DTT, 0.2 mM MnCl2, 2 mM MgCl2, 1 mM GTP or 400 μM OAA, 1 mM ADP, 0.2 mM NADH, PEPCK-C and 5 units of each pyruvate kinase and lactate dehydrogenase. Reactions were initiated by addition of OAA. Variable substrates were 5–50 μM OAA or 25–500 μM GTP and 3-MP concentrations were between 10–400 μM. Rates were calculated by measuring the decreasing slope at 340 nm of absorbance after subtracting the rate of spontaneous NADH oxidation in the case of OAA synthesis or the rate of the blank which contained all the components of the mix but PEPCK-C in the case of PEP synthesis.
(§4) Compound 1 and 2 inhibitions assays were performed in PEP synthesis direction as described in 3-MP inhibition assays. Variable substrates were 10–100 μM OAA or 25–500 μM GTP, inhibitors concentrations were around IC50 value (100 μM compound 1 or 50 μM compound 2) and 20 units of each pyruvate kinase and lactate dehydrogenase were also added.
(§5) Data from compound 1 and 2 inhibition assays were represented in double reciprocal plots to calculate Vmax and Km values using GraphPad Prism 3.03 software.

The target in another assay is T4, PEPCK-C 139Met (Sus scrofa, UniProt A0A4X1UM84).
T4 sequence (A0A4X1UM84 1-622): T1 sequence (A0A4X1UM84 1-622)
Described as above. Format: biochemical, pig. Conditions: for Vmax (GTP) in presence of inhibitor / Vmax (OAA) in presence of inhibitor: 50 μM inhibitor; for Vmax (OAA) in presence of inhibitor: OAA variable substrate. Also noted: made in house; host or cells: Escherichia coli BL21 (DE3). The protocol:
as §2, §3, §4, §5

In assay [1] the test system is pyruvate kinase and lactate dehydrogenase. The assay is described as follows: Inhibition of auxiliary enzymes. Format: biochemical. The conditions noted are these: 25–200 μM compound; data not shown. An excerpt:
Reactions were initiated by addition of 0.5 units of each pyruvate kinase and lactate dehydrogenase.

Where [2] appears, read: stated for both isoenzymes, with and without GTP.

As to `O=C(O)c1ncccc1S` [3-MP, 3-mercaptopicolinic acid], the Kd was determined as 19 µM at PEPCK-C 139M (+GTP (2 mM)), 7.2 µM on PEPCK-C 139M (-GTP), 39 µM at PEPCK-C 139L (+GTP (2 mM)) and 12 µM on PEPCK-C 139L (-GTP). In addition, the ΔH is listed as -31.8 kcal/mol on PEPCK-C 139M (+GTP (2 mM)), -20.4 kcal/mol at PEPCK-C 139M (-GTP), -58.2 kcal/mol on PEPCK-C 139L (+GTP (2 mM)) and -32.6 kcal/mol on PEPCK-C 139L (-GTP).

For `CC(=NNC(=S)NC1CCCCC1)c1sc(-c2cccs2)nc1C` [compound 1, N1-cyclohexyl-2-{1-[4-methyl-2-(2-thienyl)-1,3-thiazol-5-yl]ethylidene}hydrazine-1-carbothiamide], the “Vmax (GTP) in presence of inhibitor” value was 7.2 μmol min^-1 mg^-1 and 7.2 ± 0.4 ns μmol min^-1 mg^-1 on PEPCK-C 139Leu (GTP variable substrate); 7.8 µmol/min/mg and 7.8 ± 0.5 µmol/min/mg on PEPCK-C 139Met (GTP variable substrate). Besides, the “Vmax (OAA) in presence of inhibitor” value at PEPCK-C 139Leu is 9.4 μmol min^-1 mg^-1 and 9.4 ± 1.3 ns μmol min^-1 mg^-1; at PEPCK-C 139Met it was 6.7 µmol/min/mg and 6.7 ± 1.4 µmol/min/mg. For the same compound, the “Inhibition of / interaction with auxiliary enzymes” value in assay [1] was “slight inhibition”.

`Cn1nc(-c2ccc(C=NNC(=O)c3ccc(Cl)cc3Cl)s2)cc1C(F)(F)F` [compound 2, N'1-({5-[1-methyl-5-(trifluoromethyl)-1H-pyrazol-3-yl]-2-thienyl}methylidene)-2,4-dichlorobenzene-1-carbohydrazide]: the Kd came to 19 µM on PEPCK-C 139M (+GTP (2 mM)), 4.4 µM on PEPCK-C 139M (-GTP), 14 µM on PEPCK-C 139L (+GTP (2 mM)) and 9.8 µM at PEPCK-C 139L (-GTP). Further, the ΔH at PEPCK-C 139M (+GTP (2 mM)) is recorded as -26.6 kcal/mol; at PEPCK-C 139M (-GTP) it was -20.5 kcal/mol; on PEPCK-C 139L (+GTP (2 mM)) it was -13.9 kcal/mol; at PEPCK-C 139L (-GTP), -16.7 kcal/mol. In addition, the “n (stoichiometry, number of binding sites), all experiments” value at PEPCK-C 139M (setting [2]) and on PEPCK-C 139L (setting [2]) was ~1 throughout. Besides, the “Reduction of Km value for GTP in presence of the inhibitor” value at PEPCK-C 139Leu (GTP variable substrate) is given as “about 30%”. For the same compound, the “Vmax (GTP) in presence of inhibitor” value at PEPCK-C 139Leu (GTP variable substrate) was 6.1 ± 1.0 ns μmol min^-1 mg^-1; on PEPCK-C 139Met (GTP variable substrate) it was 5.9 ± 2.3 µmol/min/mg. Moreover, the “Vmax (OAA) in presence of inhibitor” value at PEPCK-C 139Leu was 12.7 µmol/min/mg and 12.7 ± 1.1 µmol/min/mg; on PEPCK-C 139Met it was 4.6 µmol/min/mg and 4.6 ± 1.4 µmol/min/mg. Besides, on PEPCK-C 139Met (GTP variable substrate), the “Rise of Km value for GTP in presence of the inhibitor” value was “threefold”. The “Inhibition of / interaction with auxiliary enzymes” value in assay [1] is on record as “slight interaction”.

As a reminder, the Kd is the constant that tells how readily two partners part at equilibrium.
